These results are taken from ChEMBL document CHEMBL1201862, “PubChem BioAssay data set” (2004).

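Test compounds were applied to cells in 96-well plates for 48 hours at 5 doses. GI50: concentration for 50% inhibition of growth.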 The source made the active and inactive calls. Rule as the data show it: active = GI50 up to about 1.1 µM and inactive = higher.

Test systems include PC-3; SF-295; OVCAR-8; SK-MEL-28; SR; SN12C; MDA-MB-231; CCRF-CEM; NCI/ADR-RES; HCT-116; SW-620; HL-60; KM12; SNB-19; CAKI-1; HOP-62; LOX IMVI; NCI-H226; K562; RXF 393.
Test in all cases: NCI anticancer screen, dose series, 48 h

As to `NP1(Oc2ccc(F)cc2)=NP(N)(Oc2ccc(F)cc2)=NP(Oc2ccc(F)cc2)(Oc2ccc(F)cc2)=N1` (stereo unspecified), the GI50 with PC-3 was 4.85 µM (inactive); with SF-295 it was 4.4 µM (inactive); with OVCAR-8, 3.5 µM (inactive); in the test on SK-MEL-28 it was 12.4 µM (inactive); in the test with SR it was 4.56 µM (inactive); in the test on SN12C, 6.18 µM (inactive). Further, the GI50 is 11.4 µM (inactive) with MDA-MB-231; 6.21 µM (inactive) in the test with CCRF-CEM; 6.17 µM (inactive) in the test on NCI/ADR-RES; 4.58 µM (inactive) in the test on HCT-116; 12.4 µM (inactive) in the test with SW-620; 5.09 µM (inactive) with HL-60. In addition, the GI50 with KM12 was 4.19 µM (inactive); with SNB-19 it was 10.9 µM (inactive); in the test with CAKI-1 it was 10.2 µM (inactive); in the test on HOP-62 it was 9.68 µM (inactive); with LOX IMVI it was 6.84 µM (inactive).
On to `CSC1=N/C(=C\c2ccc(Cl)cc2)C(=O)N1CN1CCOCC1`, for which the GI50 with PC-3 is 38.9 µM (inactive); with SF-295, > 100 µM (inactive); in the test with OVCAR-8, 21.7 µM (inactive); with SK-MEL-28 it was > 100 µM (inactive); in the test on SR it was 0.0791 µM (active); with SN12C, 47.5 µM (inactive). For the same molecule, the GI50 with MDA-MB-231 is 43 µM (inactive); in the test with NCI-H226 it was 46.8 µM (inactive); in the test on CCRF-CEM, 30.8 µM (inactive); with NCI/ADR-RES it was 40.6 µM (inactive); with HCT-116 it was 27.5 µM (inactive); with SW-620, 36.7 µM (inactive). Besides, the GI50 with KM12 is 85.7 µM (inactive); in the test on K562 it was 33 µM (inactive); with SNB-19 it was 31.8 µM (inactive); in the test with HOP-62 it was 23.4 µM (inactive); in the test on LOX IMVI, 26.4 µM (inactive).
Consider `Cc1cccc(-c2cccc(COCc3cccc(-c4cccc(CO)n4)n3)n2)n1`, for which the GI50 in the test on PC-3 is 18.5 µM (inactive); in the test with SF-295, > 5 µM (inactive); in the test with OVCAR-8, 16.2 µM (inactive); in the test with SK-MEL-28 it was > 50 µM (inactive); in the test on SR, > 50 µM (inactive); in the test on SN12C it was > 50 µM (inactive). Moreover, the GI50 is 24.2 µM (inactive) in the test with MDA-MB-231; > 50 µM (inactive) in the test with NCI-H226; 5.26 µM (inactive) in the test on NCI/ADR-RES; > 50 µM (inactive) in the test on HCT-116; > 50 µM (inactive) in the test on SW-620; 8.28 µM (inactive) with HL-60. Also, the GI50 in the test with KM12 is > 50 µM (inactive); in the test on K562, > 50 µM (inactive); in the test on SNB-19, > 50 µM (inactive); in the test with CAKI-1 it was 34.4 µM (inactive); in the test on HOP-62, > 50 µM (inactive); in the test with LOX IMVI, > 50 µM (inactive).
With `C(/C=N/N=C1NCCCN1)=N\N=C1NCCCN1`, the GI50 in the test with PC-3 was > 100 µM (inactive); in the test on SF-295, > 10 µM (inactive); in the test with OVCAR-8, > 100 µM (inactive); with SK-MEL-28, > 100 µM (inactive); in the test with SR it was > 100 µM (inactive); in the test with SN12C, > 100 µM (inactive). Besides, the GI50 with MDA-MB-231, in the test with NCI-H226, with CCRF-CEM, in the test with NCI/ADR-RES, with HCT-116 and in the test with SW-620 was > 100 µM (inactive) each time. For the same molecule, the GI50 in the test on KM12, in the test on K562, in the test with SNB-19, with CAKI-1, with HOP-62 and in the test with LOX IMVI was > 100 µM (inactive) throughout.
As to `N#CCCN(CCC#N)c1ccc(/C=C2\N=C(c3ccccc3)N(c3ccccn3)C2=O)cc1`, the GI50 in the test with PC-3, in the test with RXF 393, in the test with SF-295, with OVCAR-8, in the test with SK-MEL-28 and in the test on SN12C was > 100 µM (inactive) each time. Further, the GI50 with MDA-MB-231, with NCI-H226, with CCRF-CEM, in the test on NCI/ADR-RES, in the test with HCT-116 and in the test on SW-620 was > 100 µM (inactive) in each case. Also, the GI50 with HL-60, with KM12, in the test with K562, in the test with SNB-19, in the test with CAKI-1 and in the test with HOP-62 was > 100 µM (inactive) throughout. For the same molecule, the GI50 with LOX IMVI is > 100 µM (inactive).
Turning to `Cc1nc2ccccc2n1COC(Cn1ccnc1)c1ccc(Cl)cc1Cl` (stereo unspecified), the GI50 was 23.4 µM (inactive) with PC-3; 71 µM (inactive) in the test with SF-295; 94 µM (inactive) with OVCAR-8; > 100 µM (inactive) with SK-MEL-28; 60.3 µM (inactive) with SR; > 100 µM (inactive) with SN12C. In addition, the GI50 with MDA-MB-231 is > 100 µM (inactive); with CCRF-CEM, 88.9 µM (inactive); in the test on NCI/ADR-RES it was 99.8 µM (inactive); in the test on HCT-116, 53.7 µM (inactive); with SW-620, > 100 µM (inactive); in the test on HL-60, 30.5 µM (inactive). Besides, the GI50 in the test with KM12 was 71.4 µM (inactive); with K562 it was 42.8 µM (inactive); in the test on SNB-19 it was > 100 µM (inactive); in the test with CAKI-1, 17.4 µM (inactive); with HOP-62 it was 57.3 µM (inactive); with LOX IMVI, 50.8 µM (inactive).
Take `Nc1ccccc1C(=O)CC1OC(=O)c2ccccc21` (stereo unspecified): the GI50 in the test with PC-3 was 41.7 µM (inactive); in the test with SF-295, > 100 µM (inactive); with OVCAR-8, 51.5 µM (inactive); with SK-MEL-28 it was > 100 µM (inactive); with SR, 46.5 µM (inactive); with SN12C it was > 100 µM (inactive). The GI50 in the test with MDA-MB-231 is > 100 µM (inactive); in the test on NCI-H226, > 100 µM (inactive); in the test on NCI/ADR-RES, 60.1 µM (inactive); in the test with HCT-116, 51.6 µM (inactive); in the test with SW-620 it was > 100 µM (inactive); with HL-60, > 100 µM (inactive). Besides, the GI50 was 33.4 µM (inactive) in the test on KM12; > 100 µM (inactive) in the test on K562; 42.1 µM (inactive) in the test with SNB-19; 91 µM (inactive) in the test with HOP-62; 52.8 µM (inactive) with LOX IMVI.
In the case of `SCCCSCCSCCCSCCS`, the GI50 was 65.8 µM (inactive) in the test with PC-3; > 100 µM (inactive) in the test on SF-295; > 100 µM (inactive) in the test with OVCAR-8; > 100 µM (inactive) in the test on SK-MEL-28; 55.7 µM (inactive) in the test on SR; > 100 µM (inactive) in the test on SN12C. In addition, the GI50 is 70.6 µM (inactive) in the test with MDA-MB-231; 31.7 µM (inactive) in the test on CCRF-CEM; > 100 µM (inactive) in the test on NCI/ADR-RES; > 100 µM (inactive) with HCT-116; > 100 µM (inactive) with SW-620; 13.3 µM (inactive) in the test on HL-60. Further, the GI50 with KM12 was > 100 µM (inactive); with K562, 97.9 µM (inactive); in the test on SNB-19 it was > 100 µM (inactive); with HOP-62, > 100 µM (inactive); in the test with LOX IMVI, > 100 µM (inactive).
